{"source": "patent US6706506B2", "about": "“Detection of epithelial cell cancers and precancerous conditions” (priority 2000, dated 2004)", "key": {"[1]": {"tested_on": "RA hydroxylase (CYP26) gene", "assay": "Northern blot analysis of RA hydroxylase (CYP26) gene in other tumor lines and normal cell strains", "type": "cell-based, human", "details": "other tumor lines or normal cell strains cultured with or without RA", "source_text": "(§1) Total cellular RNA was isolated from cultured cells using RNA Stat-60 according to the manufacturer's instruction (Tel-Test, Friendswood, Tex.). RNA was electrophoretically fractionated by size on 1% agarose/2.2 M formaldehyde gels, transferred to nylon filters by blotting, and attached to the filters using a UV Stratalinker 1800. The cDNA probes used in this analysis were radiolabeled with [^32P]dCTP using a random primer labeling kit (Boehringer Mannheim, Indianapolis, Ind.) according to the manufacturer's directions. Glyceraldehyde phosphate dehydrogenase cDNA was used as a probe for Northern blots as described previously (Guo, et al. Cancer Res. 1998, 58:166-176; Chen, et al. J. Biol. Chem. 1996, 271:14971-14980). AHD-2 cDNA, isolated from a murine liver cDNA library by this laboratory (Chen, Mol. Pharm. 1994, 46:88-96), was used as a probe; this cDNA encodes an aldehyde dehydrogenase class I enzyme, also called ALDH-1 in human. The human LRAT cDNA clone was an Eco RI fragment (840 bp) as described (Ruiz, et al. J. Biol. Chem. 1999, 274:3834-3841). The human neutral, bile salt independent retinyl ester hydrolase and the hepatic, bile sale dependent retinyl ester hydrolase were EST clones #g4069398 and #g2237729, respectively, from Genome Systems (St. Louis, Mo.). […]"}, "[2]": {"tested_on": "RA hydroxylase (CYP26) gene", "assay": "Northern blot analysis of RA hydroxylase (CYP26) gene in MCF-7", "type": "cell-based, human", "details": "MCF-7 following retinoic acid addition", "source_text": "as §1"}, "LRAT mRNA": {"tested_on": "LRAT mRNA", "assay": "Northern blot analysis of LRAT transcripts after culture with retinoic acid", "type": "cell-based, human", "details": "1 μM retinoic acid for 48 h; HUVEC, CCD42-SK, GM0970, HMEC, HNBE, NT2", "source_text": "as §1"}, "[3]": {"tested_on": "MCF-7 breast carcinoma cell line", "assay": "[^3H]retinol esterification in MCF-7", "type": "cell-based, human", "details": "MCF-7, 22 h culture, 50 nM", "experimental": "(§2) All retinoid solutions and samples were handled under red or dim light. […] A separate control consisting of labeling medium without cells was included during the incubation period. Cells and one-fourth of the media were collected. Cells were washed once with 0.5 ml of phosphate-buffered saline (PBS) and removed from the monolayer in 0.5 ml PBS by scraping. Samples were stored at −70° C. until retinoid extraction. The cell numbers were counted from parallel dishes from each treatment at the time of cell harvest. The retinoids were extracted as described previously (McLean, et al. Clin. Chem. 1982, 28:693-696). Non-radiolabeled retinoid standards were added to the samples prior to extraction. Briefly, 350 μl acetonitrile/butanol (50:50, v/v), 0.1% butylated hydroxytoluene (BHT) was added to 0.5 ml of cells or medium samples. The mixtures were vortexed thoroughly for 30 sec. After addition of 300 μl of a saturated (1.3 kg/liter) K2HPO4 solution and thorough mixing, the samples were centrifuged for 10 min at 3000 g. […] The HPLC analysis was performed using a Waters Millenium system (Waters Corp.) to separate the various retinoids. […] Non-radiolabeled retinoid standards were run concurrently and monitored at a wavelength of 340 nm while a Packard A-500 radiochromatography detector (Packard Instruments, Downers Grove, Ill.) was used to monitor the labeled retinoids. […]"}, "[4]": {"tested_on": "fibroblast cell strains GM0970 and CCD42-SK", "assay": "[^3H]retinol metabolism in normal fibroblast cell strains", "type": "cell-based, human", "details": "15-24 h culture in the presence of [^3H]retinol", "experimental": "as §2"}, "[5]": {"tested_on": "human umbilical vein endothelial cells (HUVEC)", "assay": "[^3H]retinol metabolism in HUVEC", "type": "cell-based", "details": "15 h culture, 50 nM [^3H]retinol", "experimental": "as §2"}, "[6]": {"tested_on": "SCC-40 carcinoma line from the soft palate", "assay": "[^3H]retinol esterification in SCC-40", "type": "cell-based, human", "details": "SCC-40, 22 h exposure, 50 nM", "experimental": "as §2"}, "[7]": {"tested_on": "MDA-MB-231 breast carcinoma line", "assay": "[^3H]retinol pulse chase in MDA-MB-231", "type": "cell-based, human", "experimental": "(§3) For the pulse chase experiments, the cells were cultured for 24 h in 100 nM [^3H]retinol. Cells were then rinsed three times with warm PBS over a 30 minute period, and then incubated in growth medium without [^3H]retinol for an additional one to eight days. At various times following the removal of [^3H]retinol from the medium, dishes of cells were harvested and retinoids were extracted and subjected to HPLC analysis.\n(§4) The retinoids were extracted as described previously (McLean, et al. Clin. Chem. 1982, 28:693-696). Non-radiolabeled retinoid standards were added to the samples prior to extraction. […]\n(§5) The HPLC analysis was performed using a Waters Millenium system (Waters Corp.) to separate the various retinoids. […] Non-radiolabeled retinoid standards were run concurrently and monitored at a wavelength of 340 nm while a Packard A-500 radiochromatography detector (Packard Instruments, Downers Grove, Ill.) was used to monitor the labeled retinoids. […]\n(§6) Therefore, in this series of experiments the cells were cultured in the presence of 100 nM [^3H]retinol and 900 nM retinol in the medium for 24 h, followed by the removal of the [^3H]retinol from the medium. The cells were washed several times, and then dishes of cells were harvested at various times following the removal of [^3H]retinol from the medium, retinoids were extracted from the cells, and the [^3H]retinoids were analyzed by HPLC."}, "[8]": {"tested_on": "SCC-40 squamous cell carcinoma line", "assay": "[^3H]retinol pulse chase in SCC-40", "type": "cell-based, human", "experimental": "as §3, §4, §5, §6"}, "[9]": {"tested_on": "normal epithelial cell strains HMEC, ADO74, NHEK, OKP-7", "assay": "[^3H]retinol esterification in normal epithelial cell strains", "type": "cell-based, human", "details": "50 nM [^3H]retinol in the medium", "experimental": "as §2"}, "[10]": {"tested_on": "normal human bronchial epithelial cells (NHBE)", "assay": "[^3H]retinol esterification in NHBE", "type": "cell-based", "details": "15 h culture", "experimental": "as §2"}, "ADO74 cells": {"tested_on": "ADO74 cells", "assay": "[^3H]retinol pulse chase in ADO74", "type": "cell-based, human", "experimental": "as §3\n(§7) The retinoids were extracted as described previously (McLean, et al. Clin. Chem. 1982, 28:693-696). Non-radiolabeled retinoid standards were added to the samples prior to extraction. Briefly, 350 μl acetonitrile/butanol (50:50, v/v), 0.1% butylated hydroxytoluene (BHT) was added to 0.5 ml of cells or medium samples. The mixtures were vortexed thoroughly for 30 sec. After addition of 300 μl of a saturated (1.3 kg/liter) K2HPO4 solution and thorough mixing, the samples were centrifuged for 10 min at 3000 g. The upper organic layer was collected and transferred to an injector vial for automated HPLC analysis.\n(§8) The HPLC analysis was performed using a Waters Millenium system (Waters Corp.) to separate the various retinoids. Samples were applied to an analytical 5 μm reverse-phase C18 column (Vydac, Hesperia, Calif.) at a flow rate of 1.5 ml/min. […] Non-radiolabeled retinoid standards were run concurrently and monitored at a wavelength of 340 nm while a Packard A-500 radiochromatography detector (Packard Instruments, Downers Grove, Ill.) was used to monitor the labeled retinoids. […]\nas §6"}, "[11]": {"tested_on": "normal human epidermal keratinocytes (NHEK)", "assay": "[^3H]retinol esterification in NHEK", "type": "cell-based", "details": "15 h culture", "experimental": "as §2"}, "[12]": {"tested_on": "SCC-12 skin squamous carcinoma line", "assay": "[^3H]retinol esterification in SCC-12", "type": "cell-based, human", "details": "SCC-12, 22 h culture, 50 nM", "experimental": "as §7\nThe HPLC analysis was performed using a Waters Millenium system (Waters Corp.) to separate the various retinoids. Samples were applied to an analytical 5 μm reverse-phase C18 column (Vydac, Hesperia, Calif.) at a flow rate of 1.5 ml/min. The gradient consisted of a 35 min linear gradient from 15 mM ammonium acetate, pH 6.5, in water to 85% acetonitrile in a 10 min linear gradient from 85% acetonitrile to acetonitrile-dichloromethane (80:20) followed by a 15 min hold. Non-radiolabeled retinoid standards were run concurrently and monitored at a wavelength of 340 nm while a Packard A-500 radiochromatography detector (Packard Instruments, Downers Grove, Ill.) was used to monitor the labeled retinoids. […]"}, "OKP-7 cells": {"tested_on": "OKP-7 cells", "assay": "[^3H]retinol pulse chase in OKP-7", "type": "cell-based, human", "experimental": "as §3, §7, §8, §6"}, "[13]": {"details": "ADO74, four to eight days after [^3H]retinol removal"}, "[14]": {"details": "OKP-7, four to eight days after [^3H]retinol removal"}}, "data": [{"compound": "CC1=C(/C=C/C(C)=C/C=C/C(C)=C/C(=O)O)C(C)(C)CCC1", "note": "[retinoic acid, all-trans retinoic acid]", "values": [{"measurement": "expression of RA hydroxylase (CYP26) gene", "setting": "[1]", "value": "not expressed at detectable levels"}, {"measurement": "expression of RA hydroxylase (CYP26) gene", "setting": "[2]", "value": "strongly expressed"}, {"measurement": "effect on levels of LRAT mRNA", "setting": "LRAT mRNA", "value": "a slight increase in LRAT mRNA"}]}, {"compound": "[^3H]retinol", "values": [{"measurement": "[^3H]retinol esterification", "setting": "[3]", "value": "did not exhibit [^3H]retinol esterification"}, {"measurement": "retinol metabolism", "setting": "[4]", "value": "Essentially no retinol metabolism occurred"}, {"measurement": "retinyl esters found", "setting": "[5]", "value": "only trace amounts of retinyl esters were found"}, {"measurement": "[^3H]retinol esterification", "setting": "[6]", "value": "did not exhibit any significant [^3H]retinol esterification"}, {"measurement": "time after removal by which no [^3H]retinol is detectable intracellularly", "setting": "[7]; MDA-MB-231", "value": "≤ 24", "unit": "h"}, {"measurement": "retinyl esters at the time of [^3H]retinol removal", "setting": "[7]; MDA-MB-231, day 0", "value": "no detectable retinyl esters"}, {"measurement": "time after removal by which no [^3H]retinol is detectable intracellularly", "setting": "[8]; SCC-40", "value": "≤ 24", "unit": "h"}, {"measurement": "retinyl esters at the time of [^3H]retinol removal", "setting": "[8]; SCC-40, day 0", "value": "no detectable retinyl esters"}, {"measurement": "time by which all of the [^3H]retinol in the medium had been esterified", "setting": "[9]", "value": "6 to 8", "unit": "h"}, {"measurement": "esterification of [^3H]retinol to retinyl esters", "setting": "[10]", "value": "extensive esterification"}, {"measurement": "intracellular concentration of [^3H]retinyl esters", "setting": "ADO74 cells; ADO74, four days after removal of [^3H]retinol, 100 nM [^3H]retinol and 900 nM retinol for 24 h", "value": "~30", "unit": "µM"}, {"measurement": "intracellular concentration of [^3H]retinoic acid", "setting": "ADO74 cells; [13]", "value": "1 to 2", "unit": "µM"}, {"measurement": "intracellular concentration of [^3H]retinol", "setting": "ADO74 cells; [13]", "value": "3 to 10", "unit": "µM"}, {"measurement": "esterification of [^3H]retinol to retinyl esters", "setting": "[11]", "value": "extensive esterification"}, {"measurement": "[^3H]retinol esterification", "setting": "[12]", "value": "some [^3H]retinol esterification"}, {"measurement": "intracellular concentration of [^3H]retinyl esters", "setting": "OKP-7 cells; OKP-7, four days after removal of [^3H]retinol, 100 nM [^3H]retinol and 900 nM retinol for 24 h", "value": "approximately 26 μM"}, {"measurement": "intracellular concentration of [^3H]retinoic acid", "setting": "OKP-7 cells; [14]", "value": "1 to 2", "unit": "µM"}, {"measurement": "intracellular concentration of [^3H]retinol", "setting": "OKP-7 cells; [14]", "value": "3 to 10", "unit": "µM"}]}]}
